The text below walks through data of patent US20240398828A1, “HETERO-ATOM CONTAINING COMPOUNDS AND USES THEREOF” (Kumquat Biosciences Inc., priority 2021, published 2024).

Structures are written as SMILES.

Test [1] addresses T1, PTPN1 (i.e., PTP1B) (Homo sapiens, UniProt P18031).
T1 sequence (P18031 1-435): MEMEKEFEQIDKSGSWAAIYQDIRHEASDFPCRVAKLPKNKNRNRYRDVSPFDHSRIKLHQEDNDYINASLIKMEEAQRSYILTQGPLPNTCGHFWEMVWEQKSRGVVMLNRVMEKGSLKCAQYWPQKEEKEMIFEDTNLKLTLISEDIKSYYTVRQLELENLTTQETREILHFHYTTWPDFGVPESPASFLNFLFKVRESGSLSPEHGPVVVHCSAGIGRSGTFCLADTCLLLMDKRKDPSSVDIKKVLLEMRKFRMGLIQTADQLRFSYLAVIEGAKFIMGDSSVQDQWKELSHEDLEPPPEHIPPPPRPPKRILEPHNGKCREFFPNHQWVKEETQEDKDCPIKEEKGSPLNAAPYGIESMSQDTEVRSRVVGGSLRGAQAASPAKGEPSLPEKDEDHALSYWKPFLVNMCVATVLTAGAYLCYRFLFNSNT
As to the kind of experiment: Phosphatase activity assay (DiFMUP substrate), PTP1B. Format: biochemical. The conditions noted are these: compounds binned ≤1 uM or >1 uM. The method in brief: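 Enzyme (e.g. PTPN2 0.025 ng/ul) mixed about 2 min with compound at 10 serial concentrations in 50 mM HEPES pH 7.5, 150 mM NaCl, 0.5 mM EDTA, 1 mM DTT, 0.001% Tween-20 at room temperature. DiFMUP added at each enzyme's Km (about 45 μM for PTPN2). DiFMU fluorescence (ex 360/em 450 nm) followed 15-30 min; IC50 from 4-parameter fit of rates.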

In test [2] the target is T2, PTPN2 (i.e., TC-PTP) (Homo sapiens, UniProt P17706).
T2 sequence (P17706 1-415): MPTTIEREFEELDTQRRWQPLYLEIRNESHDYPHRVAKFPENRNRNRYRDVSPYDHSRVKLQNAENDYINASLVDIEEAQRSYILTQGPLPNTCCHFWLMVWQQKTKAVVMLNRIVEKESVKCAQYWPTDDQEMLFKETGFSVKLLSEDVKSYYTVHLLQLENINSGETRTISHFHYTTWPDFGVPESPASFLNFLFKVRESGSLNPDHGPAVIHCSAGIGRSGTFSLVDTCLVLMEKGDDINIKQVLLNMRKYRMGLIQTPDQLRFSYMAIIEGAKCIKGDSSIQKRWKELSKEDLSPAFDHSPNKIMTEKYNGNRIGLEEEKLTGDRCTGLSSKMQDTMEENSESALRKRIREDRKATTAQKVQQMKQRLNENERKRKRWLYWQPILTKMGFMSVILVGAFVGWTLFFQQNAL
As to the kind of experiment: Phosphatase activity assay (DiFMUP substrate), PTPN2. The following applies: compounds binned ≤1 uM or >1 uM. Format: biochemical. The method in brief:
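Using a Km-level DiFMUP substrate and 0.025 ng/ul PTPN2, phosphatase activity is tracked by DiFMU emission at 450 nm over about 15–30 minutes. Initial rates at ten inhibitor concentrations give IC50 by four-parameter fitting.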

A word on the IC50: it is the point on the concentration scale where inhibition reaches its midpoint. For the compound `CC(C)CCc1cc(-c2ccc(O)c(N3CC(=O)NS3(=O)=O)c2F)nn1C` [Compound 380, 5-(2-fluoro-6-hydroxy-3-(5-isopentyl-1-methyl-1H-pyrazol-3-yl)phenyl)-1,2,5-thiadiazolidin-3-one 1,1-dioxide], the half-maximal inhibitory concentration (IC50) in test [1] and in test [2] was at most 1 µM throughout.
`CN(C)CCn1cc(-c2ccc(O)c(N3CC(=O)NS3(=O)=O)c2F)cn1` [Compound 148, 5-(3-(1-(2-(dimethylamino)ethyl)-1H-pyrazol-4-yl)-2-fluoro-6-hydroxyphenyl)-1,2,5-thiadiazolidin-3-one 1,1-dioxide]: the 50% inhibitory concentration (IC50) in test [1] and in test [2] was at most 1 µM in each case.
As for `O=C1CN(c2c(O)ccc(-c3cnn(C4CCCCCC4)c3)c2F)S(=O)(=O)N1` [Compound 360, 5-(3-(1-cycloheptyl-1H-pyrazol-4-yl)-2-fluoro-6-hydroxyphenyl)-1,2,5-thiadiazolidin-3-one 1,1-dioxide], the IC50 in test [1] and in test [2] was at most 1 µM throughout.
As for `O=C1CN(c2c(O)ccc(-c3ccc4ocnc4c3)c2F)S(=O)(=O)N1` [Compound 170, 5-(3-(benzo[d]oxazol-5-yl)-2-fluoro-6-hydroxyphenyl)-1,2,5-thiadiazolidin-3-one 1,1-dioxide], the IC50 in test [1] and in test [2] was at most 1 µM throughout.
On to `O=C1CN(c2c(O)ccc(-c3ccc(NS(=O)(=O)C4CC4)cc3F)c2F)S(=O)(=O)N1` [Compound 438, N-(3′-(1,1-dioxido-4-oxo-1,2,5-thiadiazolidin-2-yl)-2,2′-difluoro-4′-hydroxy-[1,1′-biphenyl]-4-yl)cyclopropanesulfonamide], for which the IC50 in test [1] and in test [2] was at most 1 µM in each case.
Turning to `COc1ncc(-c2ccc(O)c(N3CC(=O)NS3(=O)=O)c2F)cn1` [Compound 118, 5-(2-fluoro-6-hydroxy-3-(2-methoxypyrimidin-5-yl)phenyl)-1,2,5-thiadiazolidin-3-one 1,1-dioxide], the IC50 in test [1] and in test [2] was at most 1 µM throughout.
With `O=C1CN(c2c(O)ccc(-c3cc(CCCC4CC4)n[nH]3)c2F)S(=O)(=O)N1` [Compound 464, 5-(3-(3-(3-cyclopropylpropyl)-1H-pyrazol-5-yl)-2-fluoro-6-hydroxyphenyl)-1,2,5-thiadiazolidin-3-one 1,1-dioxide], the half-maximal inhibitory concentration (IC50) in test [1] and in test [2] was at most 1 µM throughout.
`O=C1CN(c2c(O)ccc(-c3cnn(CC4CC5CCC(C4)N5C(=O)C4CC4)c3)c2F)S(=O)(=O)N1` (stereo not drawn) [Compound 295, 5-(3-(1-((8-(cyclopropanecarbonyl)-8-azabicyclo[3.2.1]octan-3-yl)methyl)-1H-pyrazol-4-yl)-2-fluoro-6-hydroxyphenyl)-1,2,5-thiadiazolidin-3-one 1,1-dioxide]: the concentration for half-maximal inhibition (IC50) in test [1] and in test [2] was at most 1 µM each time.
In the case of `CC1CCC(n2cc(-c3ccc(O)c(N4CC(=O)NS4(=O)=O)c3F)cn2)CC1` (stereo not drawn) [Compound 304, 5-(2-fluoro-6-hydroxy-3-(1-(4-methylcyclohexyl)-1H-pyrazol-4-yl)phenyl)-1,2,5-thiadiazolidin-3-one 1,1-dioxide], the half-inhibitory concentration (IC50) in test [1] and in test [2] was at most 1 µM throughout.
Take `N#C[C@H]1CC[C@H](n2cnc(-c3ccc(O)c(N4CC(=O)NS4(=O)=O)c3F)c2)CC1` [Compound 250, (1r,4r)-4-(4-(3-(1,1-dioxido-4-oxo-1,2,5-thiadiazolidin-2-yl)-2-fluoro-4-hydroxyphenyl)-1H-imidazol-1-yl)cyclohexane-1-carbonitrile]: the half-inhibitory concentration (IC50) was at most 1 µM in test [1] and over 1 µM in test [2].
The like results for `CC(C)CCc1cnc(-c2ccc(O)c(N3CC(=O)NS3(=O)=O)c2F)[nH]1` [Compound 262, 5-(2-fluoro-6-hydroxy-3-(5-isopentyl-1H-imidazol-2-yl)phenyl)-1,2,5-thiadiazolidin-3-one 1,1-dioxide] were, in that order, at most 1 µM and at most 1 µM.
The corresponding values for `CC(F)(F)n1cc(-c2ccc(O)c(N3CC(=O)NS3(=O)=O)c2F)cn1` [Compound 516, 5-(3-(1-(1,1-difluoroethyl)-1H-pyrazol-4-yl)-2-fluoro-6-hydroxyphenyl)-1,2,5-thiadiazolidin-3-one 1,1-dioxide] are at most 1 µM and at most 1 µM.
Turning to `N#Cc1cc(-c2ccc(O)c(N3CC(=O)NS3(=O)=O)c2F)[nH]n1` [Compound 439, 5-(3-(1,1-dioxido-4-oxo-1,2,5-thiadiazolidin-2-yl)-2-fluoro-4-hydroxyphenyl)-1H-pyrazole-3-carbonitrile], the 50% inhibitory concentration (IC50) in test [1] and in test [2] was at most 1 µM in each case.
Turning to `Cc1ncc(-c2ccc(O)c(N3CC(=O)NS3(=O)=O)c2F)cn1` [Compound 139, 5-(2-fluoro-6-hydroxy-3-(2-methylpyrimidin-5-yl)phenyl)-1,2,5-thiadiazolidin-3-one 1,1-dioxide], the half-inhibitory concentration (IC50) in test [1] and in test [2] was at most 1 µM throughout.
Turning to `CN(C)C1(Cn2cc(-c3ccc(O)c(N4CC(=O)NS4(=O)=O)c3F)cn2)CCC1` [Compound 430, 5-(3-(1-((1-(dimethylamino)cyclobutyl)methyl)-1H-pyrazol-4-yl)-2-fluoro-6-hydroxyphenyl)-1,2,5-thiadiazolidin-3-one 1,1-dioxide], the 50% inhibitory concentration (IC50) in test [1] and in test [2] was at most 1 µM throughout.
Turning to `CCCCC1C=C(c2ccc(O)c(N3CC(=O)NS3(=O)=O)c2F)CN1` (stereo not drawn) [Compound 523, 5-(3-(5-butyl-2,5-dihydro-1H-pyrrol-3-yl)-2-fluoro-6-hydroxyphenyl)-1,2,5-thiadiazolidin-3-one 1,1-dioxide], the half-inhibitory concentration (IC50) in test [1] and in test [2] was at most 1 µM throughout.
Take `O=C1CN(c2c(O)ccc(-c3ccc(NS(=O)(=O)C4CC4)c(F)c3)c2F)S(=O)(=O)N1` [Compound 384, N-(3′-(1,1-dioxido-4-oxo-1,2,5-thiadiazolidin-2-yl)-2′,3-difluoro-4′-hydroxy-[1,1′-biphenyl]-4-yl)cyclopropanesulfonamide]: the concentration for half-maximal inhibition (IC50) in test [1] and in test [2] was at most 1 µM throughout.
Regarding `CC(C)n1cc(-c2ccc(O)c(N3CC(=O)NS3(=O)=O)c2F)cn1` [Compound 108, 5-(2-fluoro-6-hydroxy-3-(1-isopropyl-1H-pyrazol-4-yl)phenyl)-1,2,5-thiadiazolidin-3-one 1,1-dioxide], the IC50 in test [1] and in test [2] was at most 1 µM in each case.
With `O=C1CN(c2c(O)ccc(-c3ccn(CC4CCCCC4)c3)c2F)S(=O)(=O)N1` [Compound 272, 5-(3-(1-(cyclohexylmethyl)-1H-pyrrol-3-yl)-2-fluoro-6-hydroxyphenyl)-1,2,5-thiadiazolidin-3-one 1,1-dioxide], the concentration for half-maximal inhibition (IC50) in test [1] and in test [2] was at most 1 µM throughout.
In the case of `N#Cc1ccc(-n2cnc(-c3ccc(O)c(N4CC(=O)NS4(=O)=O)c3F)c2)cc1` [Compound 427, 4-(4-(3-(1,1-dioxido-4-oxo-1,2,5-thiadiazolidin-2-yl)-2-fluoro-4-hydroxyphenyl)-1H-imidazol-1-yl)benzonitrile], the concentration for half-maximal inhibition (IC50) in test [1] and in test [2] was at most 1 µM in each case.
Consider `O=C1CN(c2c(O)ccc(-c3cn(CC4CC4)nc3F)c2F)S(=O)(=O)N1` [Compound 233, 5-(3-(1-(cyclopropylmethyl)-3-fluoro-1H-pyrazol-4-yl)-2-fluoro-6-hydroxyphenyl)-1,2,5-thiadiazolidin-3-one 1,1-dioxide], for which the IC50 in test [1] and in test [2] was at most 1 µM throughout.
For `O=C1CN(c2c(O)ccc(-c3cn(CC4CCCCC4)cn3)c2F)S(=O)(=O)N1` [Compound 453, 5-(3-(1-(cyclohexylmethyl)-1H-imidazol-4-yl)-2-fluoro-6-hydroxyphenyl)-1,2,5-thiadiazolidin-3-one 1,1-dioxide], the concentration for half-maximal inhibition (IC50) in test [1] and in test [2] was at most 1 µM throughout.
In the case of `O=C1CN(c2c(O)ccc(-c3cnn(CCC4CCOC4)c3)c2F)S(=O)(=O)N1` (stereo not drawn) [Compound 228, 5-(2-fluoro-6-hydroxy-3-(1-(2-(tetrahydrofuran-3-yl)ethyl)-1H-pyrazol-4-yl)phenyl)-1,2,5-thiadiazolidin-3-one 1,1-dioxide], the IC50 in test [1] and in test [2] was at most 1 µM each time.
Regarding `COCC#Cc1cc(-c2ccc(O)c(N3CC(=O)NS3(=O)=O)c2F)[nH]n1` [Compound 274, 5-(2-fluoro-6-hydroxy-3-(3-(3-methoxyprop-1-yn-1-yl)-1H-pyrazol-5-yl)phenyl)-1,2,5-thiadiazolidin-3-one 1,1-dioxide], the IC50 in test [1] and in test [2] was at most 1 µM throughout.
